The subject of one data set is LCR-HS2. Kind of data set: ChIP assay, histone acetylation in LCR-HS2. Type of data set: cell-based, human. The protocol:
(§1) ChIP assay was performed as previously published by our group with immunoprecipitations for AcH3, AcH4 and TBP antibodies (Santa Cruz Biotechnology) and rabbit IgG as a control. Primers used to quantify in vivo chromatin modifications are as follows: locus control region DNase I hypersensitive site 2 (LCR-HS2) forward […] (SEQ ID NO:1) and reverse […] (SEQ ID NO:2), γ-globin promoter (forward CTGAAACGGTCCCTGGCTA (SEQ ID NO:3), reverse […] (SEQ ID NO:4)), and β-globin promoter (forward […] (SEQ ID NO:5), reverse […] (SEQ ID NO:6)).

The next data set concerns β-globin gene promoter. Kind of data set: ChIP assay, histone acetylation in β-globin gene promoter. It counts as cell-based, human. On the procedure: as §1
Data set [1] relates to HbS in sickle erythroid precursors. Nature of the data set: Western blot of HbS in sickle erythroid precursors. Type of data set: cell-based, human. Conditions: 0.25 mM. The protocol: For primary cultures, erythroid precursors were generated from peripheral blood mononuclear cells isolated from discard blood of sickle patients under an IRB exempt protocol. These cells were cultured in a two-phase liquid culture system previously published (Li, B., et al., Haematologica 103:e384-e387 (2018)).
During phase 1, cells were grown in Iscove's Dulecco Media with 15% fetal bovine serum, 15% human AB serum, 10 ng/mL interleukin-3, 50 ng/mL stem cell factor and 2 IU/mL of erythropoietin (Peprotech, Rocky Hill NJ). Phase 2 of culture initiated on day 7 with a similar medium without stem cell factor and interleukin-3. On day 8, erythroid precursors were treated with AN-233 (0.125 mM and 0.25 mM), ethanol (EtOH; […] and 0.016%) and the positive control HU (100 μM) for 48 h and harvested for the various analyses.
Western blot analysis was performed using whole cell lysates generated with RIPA buffer (ThermoScientific, Rockford, IL) supplemented with proteinase and phosphatase inhibitor cocktails. For histone acetylation studies, nuclear lysates were prepared by suspending cells in buffer containing 20 mM HEPES, pH 7.9, 50 mM KCl, 420 mM NaCl, 0.1 mM EDTA, 1 mM DTT, 10% glycerol and protease inhibitor mixture for 30 min, followed by centrifugation. […]
For orientation: In western blotting, separated proteins are transferred to a membrane and probed.

The subject of data set [2] is sickle erythroid precursors. Nature of the data set: In vitro sickling assay under 2% oxygen. Type of data set: cell-based, human. As to conditions: 2% oxygen overnight. On the procedure: In vitro sickling studies were conducted as previously published by our group (Zhu, X., et al., Blood, 131:558-562 (2018)). Briefly, after drug inductions of sickle erythroid pre-cursors for 48 h, cells were incubated in 2% oxygen overnight and then fixed with 2% formaldehyde. Erythroid morphology was evaluated microscopically and the number of sickled cells per high power field manually counted for 1000 cells, per triplicates per condition.

Data set [3] has as its system HbF in β-YAC transgenic mice. Nature of the data set: HbF induction (F-cells, MFI) in β-YAC transgenic mice. Type of data set: in vivo, mouse.
The subject of the next data set is β-YAC transgenic mice. Kind of data set: Toxicity, body weight, blood counts and reticulocytes in β-YAC transgenic mice. The protocol:
The β-YAC is a transgenic mouse model containing the full-length 81 kb human β-globin gene locus including the LCR and surrounding region. The five functional human globin genes 5′-ε-Gγ-Aγ-[…]-β-3′ are present and undergo normal developmental regulation with the γ-globin gene silenced shortly after birth. β-YAC mice (5-6 months old) were administered AN-233 suspended in water (200 or 300 mg/kg) 5 days/week for 4 weeks by intraperitoneal injection; five mice per group with 3 males and 2 females were treated. Hydroxyurea (100 mg/kg) was included as a positive control. Blood was collected by tail bleed at week 0, 2 and 4 and analyzed for automated complete blood counts with differential using a Micros 60 machine (HORIBA Medical/ABX Diagnostics). The level of F-cells and MFI were performed by flow cytometry. For reticulocyte counts, whole blood was stained with acridine orange and flow cytometry performed on an LSR-II flow cytometer (BD Biosciences).

Data set [4] relates to γ-globin mRNA in K562 cells. Nature of the data set: γ-globin transcription by RT-qPCR in K562 cells. Type of data set: cell-based. Conditions: 48 h. The protocol: Initial studies were conducted in K562 cells to determine the ability of AN-233 to induce γ-globin transcription and HbF expression. K562 cells display characteristics of erythroid cells including expression of the ε, γ and α globin genes and these cells are useful for initial drug screening and discovery of potential HbF inducers.
K562 cells were treated with AN-233 for 48 h and globin gene transcription was analyzed by RT-qPCR. […]
K562 cells were cultured in Iscove's Modified Dulbecco medium (IMDM) with 10% fetal bovine serum, penicillin (100 U/mL) and streptomycin (0.1 mg/mL). Drug inductions for K562 cells were conducted for 48 h and cell viability evaluated with 0.4% Trypan blue exclusion. Cell counts were performed a dual chamber apparatus and the percentage viability obtained using an Automated Cell Counter (Bio-Rad).
Total RNA was extracted from cells using Trizol (Ambion, Carlsbad CA) and analyzed by RT-qPCR as previously published by our group. Gene-specific primers were used to quantify mRNA levels for γ-globin, β-globin and internal control glyceraldehyde-3-phosphate de-hydrogenase (GAPDH). All mRNA levels were normalized to GAPDH before analysis.
(In general: Quantitative PCR measures a nucleic acid by following its amplification.)

Data set [5] relates to eIF2αP (eukaryotic translation initiation factor 2α phosphorylation). Nature of the data set: Western blot of eIF2αP in K562 cells. It counts as cell-based. Conditions: dose-dependent, maximal. The protocol:
Western blot analysis was performed using whole cell lysates generated with RIPA buffer (ThermoScientific, Rockford, IL) supplemented with proteinase and phosphatase inhibitor cocktails. For histone acetylation studies, nuclear lysates were prepared by suspending cells in buffer containing 20 mM HEPES, pH 7.9, 50 mM KCl, 420 mM NaCl, 0.1 mM EDTA, 1 mM DTT, 10% glycerol and protease inhibitor mixture for 30 min, followed by centrifugation. Antibodies against HbF (51-7), HbA (37-8), and Tata binding protein (TBP; N-12) were purchased from Santa Cruz Biotechnology (Dallas TX); antibodies against β-actin (A5316) and rabbit IgG (18140) were purchased from Sigma (St. Louis MO). Acetylated histone H3 (AcH3; 06-599) and AcH4 (06-866) antibodies were purchased from Millipore (Burlington, MA).
Since the biosynthesis of heme prosthetic group requires ALA as a precursor and AN-233 is hydrolyzed to BA and ALA, it was next determined whether heme levels are altered after treatments of K562 cells. Using a colorimetric quantitative assay, a 1.5-fold and 1.8-fold increase (p<0.05) in intracellular heme was observed after 0.25 mM and 0.5 mM AN-233 treatment respectively (FIG. 2A). […] Therefore, K562 cells were treated with AN-233 and phosphorylated and total HRI and eIF2αP levels were measured. […]

Data on one compound can be found in patent US20240216320A1, “COMPOSITIONS AND METHODS FOR TREATING SICKLE CELL DISEASE” (Augusta University Research Institute, Inc., priority 2019, published 2024).

`CCCC(=O)OC(C)OC(=O)CCC(=O)CN` (stereo not drawn) [AN-233, 1-(butyryloxy)ethyl-5-amino-4-oxopentanoate]: in the data set with LCR-HS2, the “increase in AcH3 in LCR-HS2” value came out at 12.5 fold. In addition, in the data set with LCR-HS2, the “increase in AcH4 in LCR-HS2” value is recorded as 5 fold. For the same compound, in the data set with β-globin gene promoter, the “histone acetylation at the β-globin gene promoter” value is recorded as “no significant changes”. For the same compound, the “HbS expression by Western blot” value in data set [1] was “without changing HbS expression”. In data set [2], the “reduction of the percentage of sickled erythroid precursors” value is on record as “up to 56%”. The figures for the “increase in F-cells” value in data set [3] (200 mg/kg ip) and in data set [3] (300 mg/kg ip) were 3.4 fold and 4.5 fold, respectively. Moreover, the results for the “increase in HbF measured by MFI” value in data set [3] (200 mg/kg ip) and in data set [3] (300 mg/kg ip) were 1.4 fold and 1.7 fold, respectively. For the same compound, the F-cells in data set [3] (200 mg/kg ip, from 15.46%) is on record as 52.5%; in data set [3] (300 mg/kg ip, from 13.5%), 60.6%. In addition, the “HbF measured by MFI” value in data set [3] (200 mg/kg ip, from 588 units) worked out at 824 units; in data set [3] (300 mg/kg ip, from 447 units), 760 units. Moreover, the “anti-proliferative effects on erythropoiesis” value in the data set on β-YAC transgenic mice (mouse, in vivo) is “without observing anti-proliferative effects”. For the same compound, the increase in reticulocytes in the data set with β-YAC transgenic mice (β-YAC mice, 300 mg/kg ip, week 4, p=0.01) stood at 1.8 fold. The figures for the “increase in γ-globin mRNA levels” value in data set [4] (0.125 mM) and in data set [4] (0.25 mM) were 1.8 fold and 2.0 fold, respectively. For the same compound, the “decrease in eIF2αP levels” value in data set [5] is recorded as 50%.
